Values quoted from earlier work as cited in patent US20050209315A1, “Bioavailable nutritional supplement and method of treatment of malabsorption” (priority 2004, published 2005).

Conditions: relative to alpha tocopherol

Question: With alpha-tocotrienol [Alpha tocotrienol] as the substance, how does the “more antioxidant activity than alpha tocopherol” value read?
Answer: The value was 40-60%.
